Measurements: ChEMBL document CHEMBL1201862, “PubChem BioAssay data set” (2004)
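Each compound was tested at five concentrations against cells in 96-well plates for 48 hours. The concentration for 50% growth inhibition is given as GI50.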 Calls of active or inactive are those of the source. No stated cut-off is given here; in the data, active = GI50 up to about 1.1 µM and inactive = higher.

Tests used:
Assay in all cases: inhibition of tumour cell growth, NCI panel, 48 h
KM12 = test system: KM12
MDA-MB-435 = test system: MDA-MB-435
OVCAR-3 = test system: OVCAR-3
IGROV-1 = test system: IGROV-1
MCF7 = test system: MCF7
NCI-H226 = test system: NCI-H226
OVCAR-8 = test system: OVCAR-8
UACC-257 = test system: UACC-257
NCI/ADR-RES = test system: NCI/ADR-RES
SN12C = test system: SN12C
MOLT-4 = test system: MOLT-4
HOP-92 = test system: HOP-92
HT-29 = test system: HT-29
SF-268 = test system: SF-268
SNB-75 = test system: SNB-75
DU-145 = test system: DU-145
MDA-N = test system: MDA-N
ACHN = test system: ACHN
PC-3 = test system: PC-3
SK-OV-3 = test system: SK-OV-3
RXF 393 = test system: RXF 393
NCI-H460 = test system: NCI-H460
SNB-19 = test system: SNB-19
HCT-15 = test system: HCT-15
NCI-H522 = test system: NCI-H522
SK-MEL-5 = test system: SK-MEL-5
EKVX = test system: EKVX
T47D = test system: T47D
A549 = test system: A549
SR = test system: SR
A498 = test system: A498
UO-31 = test system: UO-31
BT-549 = test system: BT-549
K562 = test system: K562
MDA-MB-231 = test system: MDA-MB-231
LOX IMVI = test system: LOX IMVI
UACC-62 = test system: UACC-62
OVCAR-5 = test system: OVCAR-5
786-0 = test system: 786-0
M14 = test system: M14
CAKI-1 = test system: CAKI-1
SK-MEL-28 = test system: SK-MEL-28
CCRF-CEM = test system: CCRF-CEM
U-251 = test system: U-251
HL-60 = test system: HL-60
HOP-62 = test system: HOP-62
COLO 205 = test system: COLO 205
SW-620 = test system: SW-620
TK-10 = test system: TK-10
Malme-3M = test system: Malme-3M
Hs-578T = test system: Hs-578T
RPMI-8226 = test system: RPMI-8226
OVCAR-4 = test system: OVCAR-4
SK-MEL-2 = test system: SK-MEL-2
NCI-H23 = test system: NCI-H23
HCT-116 = test system: HCT-116
SF-295 = test system: SF-295
SF-539 = test system: SF-539

For `CN1CCN(CC(=O)N2c3ccccc3Sc3cc4ccccc4cc32)CC1`, the GI50 (KM12) was 17 µM (inactive), the GI50 (MDA-MB-435) was 11.4 µM (inactive) and the GI50 (OVCAR-3) was 12.9 µM (inactive). The GI50 (IGROV-1) was 16.5 µM (inactive), the GI50 (MCF7) was 15.8 µM (inactive) and the GI50 (NCI-H226) was 22.7 µM (inactive). For the same molecule, the GI50 (OVCAR-8) was 17.5 µM (inactive), the GI50 (UACC-257) was 11.6 µM (inactive) and the GI50 (NCI/ADR-RES) was 16.1 µM (inactive). The GI50 (SN12C) was 12.1 µM (inactive), the GI50 (MOLT-4) was 12.2 µM (inactive) and the GI50 (HOP-92) was 10.6 µM (inactive). For the same molecule, the GI50 (HT-29) was 4.31 µM (inactive), the GI50 (SF-268) was 11.6 µM (inactive) and the GI50 (SNB-75) was 14.5 µM (inactive). The GI50 (DU-145) was 15.9 µM (inactive), the GI50 (MDA-N) was 10 µM (inactive) and the GI50 (ACHN) was 16.4 µM (inactive). The GI50 (PC-3) was 14.3 µM (inactive), the GI50 (SK-OV-3) was 16.1 µM (inactive) and the GI50 (RXF 393) was 12.9 µM (inactive). The GI50 (NCI-H460) was 16 µM (inactive), the GI50 (SNB-19) was 18.4 µM (inactive) and the GI50 (HCT-15) was 16.7 µM. The GI50 (NCI-H522) was 15 µM (inactive), the GI50 (SK-MEL-5) was 17.5 µM (inactive) and the GI50 (EKVX) was 11.8 µM (inactive). The GI50 (T47D) was 19.7 µM (inactive), the GI50 (A549) was 15.3 µM (inactive) and the GI50 (SR) was 13.9 µM (inactive). For the same molecule, the GI50 (A498) was 13.7 µM (inactive), the GI50 (UO-31) was 13.2 µM (inactive) and the GI50 (BT-549) was 15.1 µM (inactive). The GI50 (K562) was 15.9 µM (inactive), the GI50 (MDA-MB-231) was 14.6 µM (inactive) and the GI50 (LOX IMVI) was 15.5 µM (inactive). The GI50 (UACC-62) was 17.1 µM (inactive), the GI50 (OVCAR-5) was 14.8 µM (inactive) and the GI50 (786-0) was 13.3 µM (inactive). For the same molecule, the GI50 (M14) was 13.8 µM (inactive), the GI50 (CAKI-1) was 13.1 µM (inactive) and the GI50 (SK-MEL-28) was 14.6 µM (inactive). The GI50 (CCRF-CEM) was 26 µM (inactive), the GI50 (U-251) was 14.3 µM (inactive) and the GI50 (HL-60) was 0.394 µM (active). The GI50 (HOP-62) was 18.7 µM (inactive), the GI50 (COLO 205) was 13.9 µM (inactive) and the GI50 (SW-620) was 20.4 µM (inactive). For the same molecule, the GI50 (TK-10) was 15.7 µM (inactive), the GI50 (Malme-3M) was 13.6 µM (inactive) and the GI50 (Hs-578T) was 11 µM (inactive). For the same molecule, the GI50 (RPMI-8226) was 14.6 µM (inactive), the GI50 (OVCAR-4) was 15.5 µM (inactive) and the GI50 (SK-MEL-2) was 17.5 µM (inactive). For the same molecule, the GI50 (NCI-H23) was 19.7 µM (inactive), the GI50 (HCT-116) was 10.1 µM (inactive) and the GI50 (SF-295) was 14.7 µM (inactive). The GI50 (SF-539) was 15.6 µM (inactive).
